Results on 31 molecules are retold here after US7223781B2 (Beiersdorf AG, priority 2001, dated 2007).

This test concerns the target T1, COX-1 (Sus scrofa, UniProt A0A287ANF9).
T1 construct: A platelet suspension obtained from pig's blood is preincubated with the test substance; endogenous in cells; host or cells: platelets from pig's blood
The test is described as follows: In-vitro test for COX-1 inhibition: fluorimetric quantification of malonaldehyde (MDA) in A23187-activated pig platelet suspension. The format is cell-based. As to the method:
In-vitro Test Procedure for the Determination of COX-1 Inhibition
The inhibition of the cyclooxygenase pathway is carried out by fluorimetric quantification of malonaldehyde (MA). This condenses in the acidic medium with twice the molar amount of thiobarbituric acid to give a red pigment dye, which has a fluorescence at λExcitation: 533 nm, λEmission: 550 nm.
A platelet suspension obtained from pig's blood is preincubated with the test substance for 10 min at 37° C. The concentration of the suspension should be 8×10^8 cells/ml. The arachidonic acid cascade is then activated by addition of the antibiotic calcium ionophore A23187 ([…]). After a further 10 min at 37° C., the reaction is stopped using a trichloroacetic acid solution. The samples are centrifuged and the supernatant is incubated with thiobarbituric acid for 30 min at 70° C. After cooling (30 min at room temperature), the samples are measured fluorimetrically at 533/550 nm and the IC50 values of the test compounds are determined therefrom by means of a calibration curve.

The mark [1] stands for this setting: Table 7, arylamides, pig platelets, read-out: MDA IC50.
[2] abbreviates: Table 7, arylamides, pig platelets, read-out: MDA pIC50 (converted).
Setting [3] is: Table 5, heteroarylmethyl sulfides, pig platelets, read-out: MDA IC50.
[4] abbreviates: Table 8, arylsulfonamides, pig platelets, read-out: MDA IC50.
Where [5] appears, read: Table 11, heteroaryl- and naphthylamides, pig platelets, read-out: MDA pIC50 (converted).
The mark [6] stands for this setting: Table 5, heteroarylmethyl sulfides, pig platelets, read-out: MDA pIC50 (converted).
[7] abbreviates: tables 1 to 17, read-out: IC50 values (inhibition of cyclooxygenase-1).

Where two headings read alike, the source gives them in different places.

T1 sequence (A0A287ANF9 25-600): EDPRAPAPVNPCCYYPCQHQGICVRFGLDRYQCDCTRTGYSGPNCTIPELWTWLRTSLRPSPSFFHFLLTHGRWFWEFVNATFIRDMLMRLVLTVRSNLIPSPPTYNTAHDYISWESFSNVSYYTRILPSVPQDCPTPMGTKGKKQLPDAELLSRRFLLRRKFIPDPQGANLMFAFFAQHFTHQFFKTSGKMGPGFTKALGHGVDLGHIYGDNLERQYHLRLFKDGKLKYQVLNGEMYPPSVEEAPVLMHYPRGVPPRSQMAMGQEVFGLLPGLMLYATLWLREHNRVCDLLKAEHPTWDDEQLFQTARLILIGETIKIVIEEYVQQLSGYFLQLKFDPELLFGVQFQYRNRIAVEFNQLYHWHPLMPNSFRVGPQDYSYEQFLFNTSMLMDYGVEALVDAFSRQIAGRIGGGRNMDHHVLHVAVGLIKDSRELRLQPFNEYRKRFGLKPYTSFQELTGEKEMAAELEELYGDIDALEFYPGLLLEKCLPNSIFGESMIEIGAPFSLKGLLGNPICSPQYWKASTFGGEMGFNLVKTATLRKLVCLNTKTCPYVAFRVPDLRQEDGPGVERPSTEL

Consider `COc1ccc(-c2nc(SCCNC(=O)c3cc(C(F)(F)F)cc(C(F)(F)F)c3)[nH]c2-c2ccc(OC)cc2)cc1` [Compound T44, N^1-{2-[4,5-Bis(4-methoxyphenyl)-1H-imidazol-2-ylsufanyl]ethyl}-3,5-bis-(trifluoromethyl)benzamide], for which the IC50 under setting [1] is 520 nM. On to `COc1ccc(-c2nc(SCCNC(=O)c3ccccc3[N+](=O)[O-])[nH]c2-c2ccc(OC)cc2)cc1` [Compound T41, N^1-{2-[4,5-Bis(4-methoxyphenyl)-1H-imidazol-2-ylsulfanyl]ethyl}-2-nitro-benzamide], for which, under setting [2], the IC50 was 170 nM.

Turning to `c1ccc(-c2nc(SCc3ccccn3)[nH]c2-c2ccccc2)cc1` [Compound T91, 2-[4,5-Diphenyl-1H-imidazol-2-ylsulfanylmethyl]pyridine], the IC50 under setting [3] is 700 nM. For the molecule `COc1ccc(-c2nc(SCCNC(=O)c3ccccc3)n(C)c2-c2ccc(OC)cc2)cc1` [Compound T30, N^1-{2-[4,5-Bis(4-methoxyphenyl)-1-methyl-1H-imidazol-2-ylsufanyl]-ethyl}benzamide], the IC50 (Table 17, methyl derivatives, pig platelets, read-out: MDA pIC50 (converted)) was 41.7 nM. Regarding `COc1ccc(-c2nc(SCCNC(=O)c3ccc(C)cc3)[nH]c2-c2ccc(OC)cc2)cc1` [Compound T47, N^1-{2-[4,5-Bis(4-methoxyphenyl)-1H-imidazol-2-ylsulfanyl]ethyl}4-methylbenzamide], the IC50 under setting [2] is 141 nM. Turning to `COc1ccc(-c2nc(SCCNS(=O)(=O)c3ccc([N+](=O)[O-])cc3)[nH]c2-c2ccc(OC)cc2)cc1` [Compound T21, N^1-{2-[4,5-Bis(4-methoxyphenyl)-1H-imidazol-2-ylsufanyl]ethyl}-4-nitro-benzenesulfonamide], the “MDA pIC50” value (Table 8, arylsulfonamides, pig platelets) came to 6.96 M. Further, under setting [4], the IC50 amounted to 110 nM.

In the case of `CC(Sc1nc(-c2ccc(Cl)cc2)c(-c2ccc(Cl)cc2)n1C)C(=O)N(C)C` (stereo not shown) [Compound T88, 2-[4,5-Bis(4-chlorophenyl)-1-methyl-1H-imidazol-2-ylsufanyl]-1-(di-methylamino)propan-1-one], under “Table 15, N,N-acetamides, pig platelets”, the “MDA pIC50” value amounted to 5.28 M. In addition, the IC50 (Table 15, N,N-acetamides, pig platelets, read-out: MDA IC50) is 5200 nM. For the molecule `COc1ccc(-c2nc(SC(=O)N3CCOCC3)[nH]c2-c2ccc(OC)cc2)cc1` [Compound T4, [4,5-Bis(4-methoxyphenyl)-1H-imidazol-2-yl]-morpholine-4-carbamic acid thioester], the IC50 (Table 1, carbamic acid thioesters, pig platelets, read-out: MDA pIC50 (converted)) is 28.2 nM.

As for `COc1ccc(-c2nc(SCCNC(=O)c3cccs3)[nH]c2-c2ccc(OC)cc2)cc1` [Compound T54, N^1-{2-[4,5-Bis(4-methoxyphenyl)-1H-imidazol-2-ylsulfanyl]ethyl}thiophene-2-carboxamide], the IC50 under setting [5] was 100 nM.

For `COc1ccc(-c2nc(SCCNC(=O)c3ccc4ccccc4c3)[nH]c2-c2ccc(OC)cc2)cc1` [Compound T56, N^1-{2-[4,5-Bis(4-methoxyphenyl)-1H-imidazol-2-ylsulfanyl]ethyl}-2-naphthamide], the IC50 under setting [5] is 39.8 nM. Take `COc1ccc(-c2nc(SCCNS(=O)(=O)C(C)C)[nH]c2-c2ccc(OC)cc2)cc1` [Compound T65, N^1-{2-[4,5-Bis(4-methoxyphenyl)-1H-imidazol-2-ylsulfanyl]ethyl}-propane-2-sulfonamide]: the IC50 (Table 10, alkylsulfonamides, pig platelets, read-out: MDA pIC50 (converted)) was 10 nM. As to `CN(C)C(=O)CSc1nc(-c2ccc(Cl)cc2)c(-c2ccc(Cl)cc2)[nH]1` [Compound T87, N^1N^1-Dimethyl-2-[4,5-bis(4-chlorophenyl)-1H-imidazol-2-ylsulfanyl]-acetamide], the IC50 (Table 15, N,N-acetamides, pig platelets, read-out: MDA pIC50 (converted)) was 1510 nM. As for `COc1ccc(-c2nc(SCCNC(=O)c3ccc(F)cc3)[nH]c2-c2ccc(OC)cc2)cc1` [Compound T38, N^1-{2-[4,5-Bis(4-methoxyphenyl)-1H-imidazol-2-ylsufanyl]ethyl}-4-fluorobenzamide], under setting [2], the IC50 is 251 nM.

Consider `COc1ccc(-c2nc(SCCNC(=O)C(c3ccccc3)c3ccccc3)[nH]c2-c2ccc(OC)cc2)cc1` [Compound T62, N^1-{2-[4,5-Bis(4-methoxyphenyl)-1H-imidazol-2-ylsulfanyl]ethyl}-2,2-diphenylacetamide], for which, for the setting “Table 9, alkylamides, pig platelets, read-out: MDA pIC50 (converted)”, the IC50 is 129 nM. With `COc1ccc(-c2nc(SCCNC(=O)c3c(Cl)cccc3Cl)[nH]c2-c2ccc(OC)cc2)cc1` [Compound T36, N^1-{2-[4,5-Bis(4-methoxyphenyl)-1H-imidazol-2-ylsufanyl]ethyl}-2,6-dichlorobenzamide], the IC50 under setting [2] is 110 nM. For the molecule `COc1ccc(-c2nc(SCCNC(=O)c3ccc(C(F)(F)F)cc3)[nH]c2-c2ccc(OC)cc2)cc1` [Compound T42, N^1-{2-[4,5-Bis(4-methoxyphenyl)-1H-imidazol-2-ylsufanyl]ethyl}-4-(tri-fluoromethyl)benzamide], the IC50 under setting [2] is 324 nM. Turning to `Clc1ccc(-c2nc(SCc3ccccn3)[nH]c2-c2ccc(Cl)cc2)cc1` [Compound T83, 2-[4,5-Bis(4-chlorophenyl)-1H-imidazol-2-ylsulfanylmethyl]pyridine], the IC50 under setting [6] was 331 nM. Turning to `COc1ccc(-c2nc(SCc3ccncc3)[nH]c2-c2ccc(OC)cc2)cc1` [Compound T71, 4-[4,5-Bis(4-methoxyphenyl)-1H-imidazol-2-ylsulfanylmethyl]pyridine], the IC50 runs as follows: under setting [6], 3.02 nM; under setting [7], about 1 nM.

As for `COc1ccc(-c2nc(SCCNC(=O)c3ccc([N+](=O)[O-])cc3)[nH]c2-c2ccc(OC)cc2)cc1` [Compound T40, N^1-{2-[4,5-Bis(4-methoxyphenyl)-1H-imidazol-2-ylsufanyl]ethyl}-4-nitro-benzamide], the IC50 under setting [1] was 81 nM.

In the case of `COc1ccc(-c2nc(SCCNC(=O)c3cc(Cl)cc(Cl)c3)[nH]c2-c2ccc(OC)cc2)cc1` [Compound T37, N^1-{2-[4,5-Bis(4-methoxyphenyl)-1H-imidazol-2-ylsulfanyl]ethyl}-3,5-dichlorobenzamide], the IC50 under setting [1] worked out at 520 nM. Turning to `COc1ccc(-c2nc(SCCNC(=O)c3ccc(Cl)cc3)[nH]c2-c2ccc(OC)cc2)cc1` [Compound T32, N^1-{2-[4,5-Bis(4-methoxyphenyl)-1H-imidazol-2-ylsufanyl]ethyl}-4-chlorobenzamide], the IC50 under setting [2] is 251 nM. Take `COc1ccc(-c2nc(SCc3nc4ccccc4[nH]3)[nH]c2-c2ccc(OC)cc2)cc1` [Compound T73]: the IC50 under setting [6] was 389 nM. `COc1ccc(-c2nc(SCCNS(=O)(=O)c3ccc(C(C)(C)C)cc3)[nH]c2-c2ccc(OC)cc2)cc1` [Compound T26, N^1-{2-[4,5-Bis(4-methoxyphenyl)-1H-imidazol-2-ylsufanyl]ethyl}-4-(tert-butyl)benzenesulfonamide]: the IC50 under setting [4] is 490 nM. In the case of `CCOC(=O)CS(=O)(=O)c1nc(-c2ccc(OC)cc2)c(-c2ccc(OC)cc2)[nH]1` [Compound T80, Ethyl 2-[4,5-bis(4-methoxyphenyl)-1H-imidazol-2-ylsulfonyl]acetate], the IC50 was 7.5 nM (Table 14, sulfones and their sulfide analogs, pig platelets, read-out: MDA IC50); about 1 nM under setting [7].

On to `COc1ccc(-c2nc(SCc3ccc4ccccc4n3)[nH]c2-c2ccc(OC)cc2)cc1` [Compound T72, 2-[4,5-Bis(4-methoxyphenyl)-1H-imidazol-2-ylsulfanylmethyl]quinoline], for which the IC50 under setting [3] is 90 nM. As for `COc1ccc(-c2nc(SCCC(=O)c3ccccc3)[nH]c2-c2ccc(OC)cc2)cc1` [Compound T13, 3-[4,5-Bis(4-methoxyphenyl)-1H-imidazol-2-ylsufanyl]-1-phenylpropan-1-one], the IC50 (Table 4, aryl ketones, pig platelets, read-out: MDA pIC50 (converted)) was 20.9 nM. Turning to `COc1ccc(-c2nc(SCc3cccnc3)[nH]c2-c2ccc(OC)cc2)cc1` [Compound T70, 3-[4,5-Bis(4-methoxyphenyl)-1H-imidazol-2-ylsulfanylmethyl]pyridine], the IC50 was 3.02 nM under setting [6] and about 1 nM under setting [7]. For the molecule `COc1ccc(-c2nc(SCCNC(=O)C(C)C)[nH]c2-c2ccc(OC)cc2)cc1` [Compound T51, N^1-{2-[4,5-Bis(4-methoxyphenyl)-1H-imidazol-2-ylsufanyl]ethyl}-2-methylpropanamide], the IC50 was 8.8 nM (Table 9, alkylamides, pig platelets, read-out: MDA IC50) and about 1 nM under setting [7].

For `COc1ccc(-c2nc(SCCNC(=O)c3cccc(C(F)(F)F)c3)[nH]c2-c2ccc(OC)cc2)cc1` [Compound T43, N^1-{2-[4,5-Bis(4-methoxyphenyl)-1H-imidazol-2-ylsufanyl]ethyl}-3-(tri-fluoromethyl)benzamide], the IC50 under setting [2] is 100 nM. For the molecule `COc1ccc(-c2nc(SCC(=O)c3ccc(Cl)cc3)[nH]c2-c2ccc(OC)cc2)cc1` [Compound T12], under “Table 4, aryl ketones, pig platelets, read-out: MDA IC50”, the IC50 amounted to 46 nM. Consider `COc1ccc(-c2nc(SCCNC(=O)c3ccco3)[nH]c2-c2ccc(OC)cc2)cc1` [Compound T53, N^1-{2-[4,5-Bis(4-methoxyphenyl)-1H-imidazol-2-ylsulfanyl]ethyl}furan-2-carboxamide], for which the IC50 under setting [5] was 347 nM.
